This note sets out measurements from US20130260025A1, “Group 2 Imidazolate Formulations for Direct Liquid Injection” (AIR PRODUCTS AND CHEMICALS, INC., priority 2012, published 2013).

The nature of data set [1]: Solubility of strontium imidazolate adducts in cyclooctane. How it is done: Solubility was determined by taking a weighed amount of solvent at room temperature, incrementally adding metal complex with mixing until not more could be dissolved then reweighing the resultant solution to permit the weight percentage of metal complex dissolved to be calculated. A fixed volume of the solution was then weighed. […] The moles of metal complex is then divided by the volume of weighed solution in liters to yield the molarity of the solution.

A short description of data set [2]: Solubility of strontium imidazolate adducts in mesitylene. It is filed as physicochemical. An excerpt:
A fixed volume of the solution was then weighed. […] […].

The nature of data set [3]: Thermogravimetric analysis (TGA)/differential scanning calorimetry (DSC). It is filed as physicochemical. As for the experimental part: Thermogravimetric analysis (TGA) of the complexes listed in Tables 1 and 2 were conducted whereby samples were suspended in a microbalance pan under a steady stream of nitrogen while being heated under a constant rate. Weight loss is measured as a function of temperature/time while a differential scanning calorimeter monitors exotherms (decomposition) or endotherms (phase change/melting or evaporative cooling).
(In DSC, transitions show as peaks or steps in heat flow.)

The mark [4] stands for this setting: saturated solution in cyclooctane, room temperature.
The mark [5] stands for this setting: saturated solution in mesitylene, room temperature.

Turning to `CC(C)(C)c1nc(C(C)(C)C)c(C(C)(C)C)[n-]1.CC(C)(C)c1nc(C(C)(C)C)c(C(C)(C)C)[n-]1.COCC(C)OC.[Sr+2]` [Strontium bis(2,4,5-tri-tert-butylimidazolate)(1,2-dimethoxypropane)], in data set [1], the “Molarity of strontium complex” value stood at 0.04 M and the “Wt % of strontium complex” value is on record as 2.8 Wt %. Moreover, in data set [2], the “Molarity of strontium complex” value was found to be 0.093 M and the “Wt % of strontium complex” value amounted to 7.3 Wt %.
Regarding `CC(C)(C)c1nc(C(C)(C)C)c(C(C)(C)C)[n-]1.CC(C)(C)c1nc(C(C)(C)C)c(C(C)(C)C)[n-]1.COC(C)OC.[Sr+2]` [Strontium bis(2,4,5-tri-tert-butylimidazolate)(1,1-dimethoxyethane)], in data set [1] (setting [4]), the “Molarity of strontium complex” value is 0.03 M and the “Wt % of strontium complex” value is 2.1 Wt %. In addition, in data set [2] (setting [5]), the “Molarity of strontium complex” value is reported as 0.13 M and the “Wt % of strontium complex” value worked out at 9.0 Wt %.
As for `CC(C)(C)c1nc(C(C)(C)C)c(C(C)(C)C)[n-]1.CC(C)(C)c1nc(C(C)(C)C)c(C(C)(C)C)[n-]1.CC1CCOC1.[Sr+2]` [Strontium bis(2,4,5-tri-tert-butylimidazolate)(3-methyltetrahydrofuran)], in data set [1], the “Molarity of strontium complex” value amounted to 0.05 M and the “Wt % of strontium complex” value turned out to be 3.5 Wt %. Besides, in data set [2], the “Molarity of strontium complex” value is reported as 0.44 M, the “Wt % of strontium complex” value worked out at 28.8 Wt % and the “times more soluble in mesitylene than parent complex” value is 9-13 times.
As to `CC(C)(C)c1nc(C(C)(C)C)c(C(C)(C)C)[n-]1.CC(C)(C)c1nc(C(C)(C)C)c(C(C)(C)C)[n-]1.CN(C)CCN(C)C.[Sr+2]` [Strontium bis(2,4,5-tri-tert-butylimidazolate)(tetramethylethlenediamine)], the “Molarity of strontium complex” value in data set [1] (setting [4]) amounted to 0.02 M; in data set [2] (setting [5]), 0.041 M. In addition, the “Wt % of strontium complex” value is on record as 1.8 Wt % in data set [1] (setting [4]) and 3.3 Wt % in data set [2] (setting [5]).
In the case of `C1CCOC1.CC(C)(C)c1nc(C(C)(C)C)c(C(C)(C)C)[n-]1.CC(C)(C)c1nc(C(C)(C)C)c(C(C)(C)C)[n-]1.[Sr+2]` [Strontium bis(2,4,5-tri-tert-butylimidazolatee)(tetrahydrofuran)], in data set [3] (TGA under nitrogen stream, constant heating rate, FIG. 7), the “temperature at which weight loss associated with loss of tetrahydrofuran significantly begins” value is ≥ 100 °C. In addition, in data set [1] (setting [4]), the “Molarity of strontium complex” value was determined as 0.35 M and the “Wt % of strontium complex” value is listed as 23.6 Wt %. In addition, in data set [2] (setting [5]), the “Molarity of strontium complex” value worked out at 0.6 M and the “Wt % of strontium complex” value was determined as 28.2 Wt %.
In data set [3], `C1=CCOC1.CC(C)(C)c1nc(C(C)(C)C)c(C(C)(C)C)[n-]1.CC(C)(C)c1nc(C(C)(C)C)c(C(C)(C)C)[n-]1.[Sr+2]` [Strontium bis(2,4,5-tri-tert-butylimidazolate)(2,5-dihydrofuran)] displayed a TGA residual mass of 8.09%. Besides, in data set [1], the “Molarity of strontium complex” value is 0.37 M, the “Wt % of strontium complex” value was determined as 24 Wt % and the “times more soluble in cyclooctane than parent complex” value is on record as 11-12 times. In addition, in data set [2], the “Wt % of strontium complex” value was 38 Wt % and the “times more soluble in mesitylene than parent complex” value is on record as 9-13 times.
